# Experimental data published in patent US20090076029A1 (Palatin Technologies, Inc., priority 2007, published 2009).
# Where “and” joins values, the source holds several entries; their conditions need not be identical. Equal values may be shown once. Read-outs that look alike come from different tables or passages of the source.
# What was measured:
# MC1-R [1] = target: T1, MC1-R; assay: Competitive inhibition assay using [I125]-NDP-α-MSH, MC1-R membranes; type: binding, mouse; details: for Inhibition at 1 μM (NDP-α-MSH) MC1-R: 1 μM compound
# T1 construct: other: 1 μM compound
# Method: (§1) Competitive inhibition assay using [1125]-NDP-α-MSH. A competitive inhibition binding assay was conducted using membranes prepared from HEK-293 cells transfected to express hMC3-R, hMC4-R or hMC5-R, and from B-16 mouse melanoma cells (containing MC1-R) using 0.2 to 0.4 nM [I^125]-NDP-α-MSH (New England Nuclear) in 50 mM HEPES buffer containing 1 mM MgCl2, 2 mM CaCl2, and 5 mM KCl, at pH 7.2. In certain experiments, HEK-293 cells transfected to express hMC1-R were also employed. The assay tube also contained a chosen concentration of the test compound of this invention, typically a 1 μM concentration, for determining inhibition of the binding of [^1125]-NDP-α-MSH to its receptor. Non-specific binding was measured by inhibition of binding of [I^125]-NDP-α-MSH in the assay with the presence of 1 μM α-MSH.
# (§2) The assay mixture was incubated for 90 minutes at room temperature, then filtered and the membranes washed three times with ice cold buffer. The filter was dried and counted in a gamma counter for remaining radioactivity bound to the membranes. 100% specific binding was defined as the difference in radioactivity (cpm) bound to cell membranes in the absence and presence of 1 μM α-MSH. The cpm obtained in presence of test compounds were normalized with respect to 100% specific binding to determine the percent inhibition of [125]-NDP-α-MSH binding. Each assay was conducted in triplicate and the actual mean values are described, with results less than 0% reported as 0%.
# hMC3-R [2] = system: T2, hMC3-R; assay: Competitive inhibition assay using [I125]-NDP-α-MSH, hMC3-R membranes; type: binding, human; details: for Ki: read-out: Ki (nM) (NDP-α-MSH) MC3-R
# T2 construct: expressed in transfected cells; host or cells: HEK-293
# How it was run: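 Single-concentration displacement (usually 1 μM compound) of 0.2–0.4 nM [125I]-NDP-α-MSH, run 90 min at room temperature in pH 7.2 HEPES containing MgCl2, CaCl2 and KCl. Receptor sources: transfected HEK-293 membranes for human MC3-R/MC4-R/MC5-R, B-16 mouse melanoma membranes for MC1-R. Bound counts normalised to 1 μM α-MSH-defined specific binding; triplicates averaged, values below 0% set to 0%.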
# hMC4-R [3] = system: T3, hMC4-R; assay: Competitive inhibition assay using [I125]-NDP-α-MSH, hMC4-R membranes; type: binding, human; details: for Inhibition at 1 μM (NDP-α-MSH) MC4-R: 1 μM compound; for attenuation of binding of α-MSH and AgRP to MC4-R: both ligands (NDP-α-MSH and AgRP), summary
# T3 construct: expressed in transfected cells; host or cells: HEK-293
# hMC5-R [4] = system: T4, hMC5-R; assay: Competitive inhibition assay using [I125]-NDP-α-MSH, hMC5-R membranes; type: binding, human; details: for Ki: read-out: Ki (nM) (NDP-α-MSH) MC5-R
# T4 construct: expressed in transfected cells; host or cells: HEK-293
# Method: as §1, §2
# hMC4-R [5] = system: T3, hMC4-R; type: binding, human; details: for Inhibition at 1 μM (AgRP) MC4-R: 1 μM compound
# How it was run: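 Membranes from hMC4-R-expressing cells incubated 1 h at 37 °C with 0.2 nM [I^125]-AgRP (83-132) and increasing compound in 25 mM HEPES pH 7.5, 100 mM NaCl, 2 mM CaCl2, 2 mM MgCl2, 0.3 mM 1,10-phenanthroline, 0.5% BSA. Filtration, gamma counting; specific binding kept ≤10% of added counts.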
# hMC4-R [6] = system: T3, hMC4-R; assay: cAMP functional assay in HEK-293 cells expressing MC4-R (agonist, neutral antagonist/Schild); type: cell-based, human; details: for intrinsic activity at MC4-R: NDP-α-MSH maximal stimulation = 1.0; for functional status at MC4-R: mostly at 1 μM
# How it was run: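 Cells in EBSS/HEPES pH 7.5 with 0.3 mM IBMX, exposed to compound (0.05-5000 nM, 1% DMSO) for 1 h at 37 °C; cAMP by EIA, EC50 by nonlinear regression. Antagonism: 30 min compound pre-incubation, then 1 nM NDP-α-MSH for 1 h; Schild analysis over 0.005-5000 nM agonist gives pA2.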
# MC1-R [7] = system: T5, MC1-R; assay: cAMP functional assay, B-16 mouse melanoma cells expressing MC1-R; type: cell-based; details: cAMP assay at 1 μM
# T5 construct: from B-16 mouse melanoma cells (containing MC1-R); endogenous in cells; host or cells: B-16 mouse melanoma cells
# Method: (§3) General method for EC50 determination in functional activity assay. Functional evaluation of compounds at melanocortin receptors was performed by measuring the accumulation of intracellular cAMP in HEK-293 cells expressing hMC3-R, hMC4-R or hMC5-R, and in B-16 mouse melanoma cells expressing MC1-R. Cells suspended in Earle's Balanced Salt Solution containing 10 mM HEPES (pH 7.5), 5 mM MgCl2, 1 mM glutamine, 0.1% albumin and 0.6 mM 3-isobutyl-1-methyl-xanthine, a phosphodiesterase inhibitor, were plated in 96 well plates at a density of 0.5×10^5 cells per well. Cells were incubated with the test compounds in the presence or absence of α-MSH for 1 hour at 37° C. cAMP levels in the cell lysates were measured using an EIA kit (Amersham). Data analysis and EC50 values were determined using nonlinear regression analysis with Prism Graph-Pad software.
# (§4) Functional status. The agonist/antagonist status with respect to MC1-R, MC-3R, MC4-R and MC5-R of certain compounds of the invention was determined.
# hMC5-R [8] = system: T4, hMC5-R; assay: cAMP functional assay, HEK-293 cells expressing hMC5-R; type: cell-based, human; details: cAMP assay at 1 μM
# Method: as §3, §4
# hMC3-R [9] = system: T2, hMC3-R; assay: cAMP functional assay, HEK-293 cells expressing hMC3-R; type: cell-based, human; details: cAMP assay at 1 μM
# Method: as §3, §4
# [10] = MC4-R membranes, Table 1, read-out: Ki (nM) I125-NPD-α-MSH
# [11] = read-out: Ki (nM) (NDP-α-MSH) MC4-R
# [12] = MC4-R membranes, Table 1, read-out: Ki (nM) I125-AgRP
# [13] = cAMP assay, read-out: EC50 (nM) at MC4-R
Compound,Ki (MC1-R [1]),Inhibition at 1 μM (NDP-α-MSH) MC1-R (MC1-R [1]),Ki (hMC3-R [2]),Inhibition at 1 μM (NDP-α-MSH) MC4-R (hMC4-R [3]),Ki (hMC4-R [3]; [10]),Ki (hMC4-R [3]; [11]),Ki (hMC5-R [4]),Inhibition at 1 μM (AgRP) MC4-R (hMC4-R [5]),Ki (hMC4-R [5]; [12]),Ki (hMC4-R [5]; read-out: Ki (nM) (AgRP) MC4-R),"functional status (pAg, Ag, Antag, Inactive) (hMC4-R [6]; MC4-R, Table 1)",intrinsic activity at MC4-R (hMC4-R [6]),functional status at MC4-R (hMC4-R [6]; cAMP assay),functional status at MC1-R (MC1-R [7]),functional status at MC5-R (hMC5-R [8]),attenuation of binding of α-MSH and AgRP to MC4-R (hMC4-R [3]),"EC50 (hMC4-R [6]; MC4-R, Table 1, read-out: EC50)",EC50 (hMC4-R [6]; [13]),functional status at MC3-R (hMC3-R [9]),other results
"CC(C)C[C@H]1CN(C(=O)[C@H](N)Cc2ccc(Cl)cc2Cl)[C@@H](CCCNC(=N)N)CN1CCc1ccc2ccccc2c1 [Example 3, N-{3-[1-[2(R)-Amino-3-(2,4-dichloro-phenyl)-propionyl]-5(S)-isobutyl-4-(2-naphthalen-2-yl-ethyl)-piperazin-2(S)-yl]-propyl}-guanidine]",5900 nM,4%,495 nM,95%,48 nM,48 nM,698 nM,91%,39 nM,39 nM,Inactive,no intrinsic activity,inactive,partial agonist (intrinsic activity between 0.1 (10%) and 0.7 (70%) is classified as a partial agonist),partial agonist (intrinsic activity between 0.1 (10%) and 0.7 (70%) is classified as a partial agonist),,,,,Inhibition at 1 μM (NDP-α-MSH) MC3-R (hMC3-R [2]; 1 μM compound): 16%; Inhibition at 1 μM (NDP-α-MSH) MC5-R (hMC5-R [4]; 1 μM compound): 28%
"Cc1ccc(CCN2C[C@H](CCCNC(=N)N)N(C(=O)[C@H](N)Cc3ccc4ccccc4c3)C[C@H]2C)cc1 [Example 5, N-{3-[1-(2(R)-Amino-3-naphthalen-2-yl-propionyl)-5(R)-methyl-4-(2-p-tolyl-ethyl)-piperazin-2(S)-yl]-propyl}-guanidine]",135 nM,32%,164 nM,,29 nM,29 nM,448 nM,93%,42 nM,42 nM,pAg (“pAg” means partial agonist),0.6,,partial agonist (intrinsic activity between 0.1 (10%) and 0.7 (70%) is classified as a partial agonist),partial agonist (intrinsic activity between 0.1 (10%) and 0.7 (70%) is classified as a partial agonist),attenuate the binding of both α-MSH and AgRP to MC4-R,370 nM,370 nM,no intrinsic activity (intrinsic activity below 0.1 (10%) is classified as inactive or having no intrinsic activity),
"C[C@@H]1CN(C(=O)[C@H](N)Cc2ccc3ccccc3c2)[C@@H](CCCNC(=N)N)CN1C(=O)Cc1c[nH]c2ccccc12 [Example 6, N-{3-[1-(2(R)-Amino-3-naphthalen-2-yl-propionyl)-4-(2-1H-indol-3-yl-acetyl)-5(R)-methyl-piperazin-2(S)-yl]-propyl}-guanidine]",315 nM,20%,1820 nM,,35 nM,35 nM,1530 nM,84%,83 nM,83 nM,pAg (“pAg” means partial agonist),0.2,,no intrinsic activity (intrinsic activity below 0.1 (10%) is classified as inactive or having no intrinsic activity),partial agonist (intrinsic activity between 0.1 (10%) and 0.7 (70%) is classified as a partial agonist),attenuate the binding of both α-MSH and AgRP to MC4-R,> 1000 nM,> 1000 nM,no intrinsic activity (intrinsic activity below 0.1 (10%) is classified as inactive or having no intrinsic activity),
"C[C@@H]1CN(C(=O)[C@H](N)Cc2ccc(Cl)cc2Cl)[C@@H](CCCNC(=N)N)CN1CCc1ccc2ccccc2c1 [Example 12, N-{3-[1-[2(R)-Amino-3-(2,4-dichloro-phenyl)-propionyl]-5(R)-methyl-4-(2-naphthalen-2-yl-ethyl)-piperazin-2(S)-yl]-propyl}-guanidine]",1130 nM,20%,,99%,,,,,,,Antag (“Antag” means antagonist),,antagonist,inactive,inactive,,,,inactive,pA2 value at MC4-R (hMC4-R [6]; Schild plot vs NDP-α-MSH): 7.52 and 7.7
NH2—(CH2)6—C(═O)-Ser(Bzl)-D-Phe(4-Cl)-Arg-Trp-Asp-NH2 [Example 14],760 nM,35%,180 nM,,,,,,,,pAg (“pAg” means partial agonist),0.5,partial agonist (intrinsic activity between 0.1 (10%) and 0.7 (70%) is classified as a partial agonist),inactive,inactive,,568 nM,568 nM,partial agonist (intrinsic activity between 0.1 (10%) and 0.7 (70%) is classified as a partial agonist),
